From patent US20030190357A1, “Compositions for delivery of a cortisol antagonist” (priority 2000, published 2003)

Assay: solubility of ketoconazole in oleic acid
Assay type: physicochemical
Settings: ambient room temperature, 48 h
Method: The solubility of ketoconazole in oleic acid was assessed at ambient room temperature using the method described in Example 1. Samples containing 5, 10, 15 and 33 wt. % of ketoconazole were mixed with oleic acid and the appearance of undissolved ketoconazole was investigated after 24 and 48 h. After 24 hours samples containing 5 wt. % ketoconazole were completely dissolved and after 48 h samples containing 10 wt. % of ketoconazole were completely homogenous and all ketoconazole was dissolved. Thus the solubility of ketoconazole in oleic acid is estimated to be about 10 wt. %.

CC(=O)N1CCN(c2ccc(OCC3COC(Cn4ccnc4)(c4ccc(Cl)cc4Cl)O3)cc2)CC1 (stereo not shown) [ketoconazole, Ketoconazole]
solubility of ketoconazole in oleic acid: about 10 wt. %
